Source: PubChem BioAssay (NCI)
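Growth conditions: 96-well plates. Treatment: test compound, 48 hours, 5 concentrations. Analysis: linear interpolation between bracketing concentrations; unreached endpoints set to highest concentration. TGI denotes the concentration required for complete inhibition of growth.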

Key:
Experiment in all cases: inhibition of tumour cell growth, NCI panel, 48 h
NCI-H23 lung = system: NCI-H23 lung
SN12C renal = system: SN12C renal
COLO 205 colon = system: COLO 205 colon
A549 NSCLC = system: A549 NSCLC
SK-MEL-28 melanoma = system: SK-MEL-28 melanoma
HL-60(TB) leukemia = system: HL-60(TB) leukemia
SK-MEL-5 melanoma = system: SK-MEL-5 melanoma
HCT-15 colon = system: HCT-15 colon
786-0 renal = system: 786-0 renal
IGROV1 ovarian = system: IGROV1 ovarian
NCI-H522 lung = system: NCI-H522 lung
PC-3 prostate = system: PC-3 prostate
MDA-N = system: MDA-N
HOP-92 NSCLC = system: HOP-92 NSCLC
HS 578T breast = system: HS 578T breast
MDA-MB-435 = system: MDA-MB-435
NCI-H226 lung = system: NCI-H226 lung
SF-268 CNS = system: SF-268 CNS
LOX IMVI melanoma = system: LOX IMVI melanoma
T-47D breast = system: T-47D breast
OVCAR-8 ovarian = system: OVCAR-8 ovarian
HT29 colon = system: HT29 colon
UACC-62 melanoma = system: UACC-62 melanoma
K-562 leukemia = system: K-562 leukemia
RXF 393 renal = system: RXF 393 renal
U251 CNS = system: U251 CNS
A498 renal = system: A498 renal
NCI-H460 lung = system: NCI-H460 lung
SNB-75 CNS = system: SNB-75 CNS
SR leukemia = system: SR leukemia
CCRF-CEM leukemia = system: CCRF-CEM leukemia
SF-295 CNS = system: SF-295 CNS
DU-145 prostate = system: DU-145 prostate
HCT-116 colon = system: HCT-116 colon
MCF7 breast = system: MCF7 breast
SK-MEL-2 melanoma = system: SK-MEL-2 melanoma
KM12 colon = system: KM12 colon
MOLT-4 leukemia = system: MOLT-4 leukemia
UACC-257 melanoma = system: UACC-257 melanoma
CAKI-1 renal = system: CAKI-1 renal
HCC-2998 colon = system: HCC-2998 colon
SF-539 CNS = system: SF-539 CNS
OVCAR-5 ovarian = system: OVCAR-5 ovarian
M14 melanoma = system: M14 melanoma
HOP-62 NSCLC = system: HOP-62 NSCLC
SW-620 colon = system: SW-620 colon
OVCAR-4 ovarian = system: OVCAR-4 ovarian
ACHN renal = system: ACHN renal
RPMI-8226 leukemia = system: RPMI-8226 leukemia
SNB-19 CNS = system: SNB-19 CNS
TK-10 renal = system: TK-10 renal
MALME-3M melanoma = system: MALME-3M melanoma
SK-OV-3 ovarian = system: SK-OV-3 ovarian
EKVX NSCLC = system: EKVX NSCLC
BT-549 breast = system: BT-549 breast
OVCAR-3 ovarian = system: OVCAR-3 ovarian
MDA-MB-231 breast = system: MDA-MB-231 breast
NCI/ADR-RES ovarian = system: NCI/ADR-RES ovarian
UO-31 renal = system: UO-31 renal

## O=C1OC(c2ccccc2)=N/C1=C\c1ccc(Br)cc1
NCI-H23 lung
  TGI: > 100 µM
SN12C renal
  TGI: > 100 µM
COLO 205 colon
  TGI: > 100 µM
A549 NSCLC
  TGI: > 100 µM
SK-MEL-28 melanoma
  TGI: > 100 µM
HL-60(TB) leukemia
  TGI: > 100 µM
SK-MEL-5 melanoma
  TGI: > 100 µM
HCT-15 colon
  TGI: > 100 µM
786-0 renal
  TGI: > 100 µM
IGROV1 ovarian
  TGI: > 100 µM
NCI-H522 lung
  TGI: > 100 µM
PC-3 prostate
  TGI: > 100 µM
MDA-N
  TGI: > 100 µM
HOP-92 NSCLC
  TGI: > 100 µM
HS 578T breast
  TGI: > 100 µM
MDA-MB-435
  TGI: > 100 µM
NCI-H226 lung
  TGI: > 100 µM
SF-268 CNS
  TGI: > 100 µM
LOX IMVI melanoma
  TGI: > 100 µM
T-47D breast
  TGI: > 100 µM
OVCAR-8 ovarian
  TGI: > 100 µM
HT29 colon
  TGI: > 100 µM
UACC-62 melanoma
  TGI: > 100 µM
K-562 leukemia
  TGI: > 100 µM
RXF 393 renal
  TGI: > 100 µM
U251 CNS
  TGI: > 100 µM
A498 renal
  TGI: > 100 µM
NCI-H460 lung
  TGI: > 100 µM
SNB-75 CNS
  TGI: > 100 µM
SR leukemia
  TGI: > 100 µM
CCRF-CEM leukemia
  TGI: > 100 µM
SF-295 CNS
  TGI: > 100 µM
DU-145 prostate
  TGI: > 100 µM
HCT-116 colon
  TGI: > 100 µM
MCF7 breast
  TGI: > 100 µM
SK-MEL-2 melanoma
  TGI: > 100 µM
KM12 colon
  TGI: > 100 µM
MOLT-4 leukemia
  TGI: > 100 µM
UACC-257 melanoma
  TGI: > 100 µM
CAKI-1 renal
  TGI: > 100 µM
HCC-2998 colon
  TGI: > 100 µM
SF-539 CNS
  TGI: > 100 µM
OVCAR-5 ovarian
  TGI: > 100 µM
M14 melanoma
  TGI: > 100 µM
HOP-62 NSCLC
  TGI: > 100 µM
SW-620 colon
  TGI: > 100 µM
OVCAR-4 ovarian
  TGI: > 100 µM
ACHN renal
  TGI: > 100 µM
RPMI-8226 leukemia
  TGI: > 100 µM
SNB-19 CNS
  TGI: > 100 µM
TK-10 renal
  TGI: > 100 µM
MALME-3M melanoma
  TGI: > 100 µM
SK-OV-3 ovarian
  TGI: > 100 µM
EKVX NSCLC
  TGI: > 100 µM
BT-549 breast
  TGI: > 100 µM
OVCAR-3 ovarian
  TGI: > 100 µM
MDA-MB-231 breast
  TGI: > 100 µM

## NC(=S)Nc1[nH]c(=S)nc2[nH]ccc12
NCI-H23 lung
  TGI: > 100 µM
SN12C renal
  TGI: > 100 µM
COLO 205 colon
  TGI: > 100 µM
A549 NSCLC
  TGI: > 100 µM
SK-MEL-28 melanoma
  TGI: > 100 µM
HL-60(TB) leukemia
  TGI: 53.2 µM
SK-MEL-5 melanoma
  TGI: > 100 µM
HCT-15 colon
  TGI: > 100 µM
786-0 renal
  TGI: > 100 µM
IGROV1 ovarian
  TGI: > 100 µM
PC-3 prostate
  TGI: > 100 µM
MDA-N
  TGI: > 100 µM
HOP-92 NSCLC
  TGI: > 100 µM
HS 578T breast
  TGI: > 100 µM
MDA-MB-435
  TGI: > 100 µM
NCI-H226 lung
  TGI: > 100 µM
SF-268 CNS
  TGI: > 100 µM
LOX IMVI melanoma
  TGI: > 100 µM
T-47D breast
  TGI: > 100 µM
OVCAR-8 ovarian
  TGI: > 100 µM
HT29 colon
  TGI: > 100 µM
NCI/ADR-RES ovarian
  TGI: > 100 µM
UACC-62 melanoma
  TGI: > 100 µM
K-562 leukemia
  TGI: > 100 µM
U251 CNS
  TGI: > 100 µM
A498 renal
  TGI: > 100 µM
NCI-H460 lung
  TGI: > 100 µM
SNB-75 CNS
  TGI: 62.9 µM
SR leukemia
  TGI: > 100 µM
CCRF-CEM leukemia
  TGI: > 100 µM
SF-295 CNS
  TGI: > 100 µM
DU-145 prostate
  TGI: > 100 µM
HCT-116 colon
  TGI: > 100 µM
MCF7 breast
  TGI: > 100 µM
SK-MEL-2 melanoma
  TGI: > 100 µM
KM12 colon
  TGI: > 100 µM
MOLT-4 leukemia
  TGI: > 100 µM
UACC-257 melanoma
  TGI: > 100 µM
CAKI-1 renal
  TGI: > 100 µM
SF-539 CNS
  TGI: > 100 µM
OVCAR-5 ovarian
  TGI: > 100 µM
M14 melanoma
  TGI: > 100 µM
HOP-62 NSCLC
  TGI: > 100 µM
UO-31 renal
  TGI: > 100 µM
SW-620 colon
  TGI: > 100 µM
ACHN renal
  TGI: > 100 µM
RPMI-8226 leukemia
  TGI: > 100 µM
SNB-19 CNS
  TGI: > 100 µM
TK-10 renal
  TGI: > 100 µM
SK-OV-3 ovarian
  TGI: > 100 µM
EKVX NSCLC
  TGI: > 100 µM
BT-549 breast
  TGI: > 100 µM
OVCAR-3 ovarian
  TGI: 94.3 µM
MDA-MB-231 breast
  TGI: > 100 µM

## CC(C)C[C@@H](NC(=O)[C@@H](Cc1cccc2ccccc12)NC(=O)N1CCOCC1)B(O)O
NCI-H23 lung
  TGI: > 100 µM
SN12C renal
  TGI: > 100 µM
COLO 205 colon
  TGI: > 100 µM
A549 NSCLC
  TGI: > 100 µM
SK-MEL-28 melanoma
  TGI: 64.1 µM
HL-60(TB) leukemia
  TGI: > 100 µM
HCT-15 colon
  TGI: > 100 µM
IGROV1 ovarian
  TGI: > 100 µM
PC-3 prostate
  TGI: > 100 µM
MDA-N
  TGI: 41.8 µM
HOP-92 NSCLC
  TGI: > 100 µM
HS 578T breast
  TGI: > 100 µM
MDA-MB-435
  TGI: 42.9 µM
NCI-H226 lung
  TGI: 36.8 µM
SF-268 CNS
  TGI: > 100 µM
LOX IMVI melanoma
  TGI: > 100 µM
T-47D breast
  TGI: > 100 µM
OVCAR-8 ovarian
  TGI: > 100 µM
HT29 colon
  TGI: > 100 µM
NCI/ADR-RES ovarian
  TGI: > 100 µM
UACC-62 melanoma
  TGI: > 100 µM
K-562 leukemia
  TGI: > 100 µM
U251 CNS
  TGI: > 100 µM
A498 renal
  TGI: 93.8 µM
NCI-H460 lung
  TGI: > 100 µM
SR leukemia
  TGI: > 100 µM
DU-145 prostate
  TGI: > 100 µM
HCT-116 colon
  TGI: > 100 µM
SK-MEL-2 melanoma
  TGI: > 100 µM
KM12 colon
  TGI: > 100 µM
MOLT-4 leukemia
  TGI: 96.5 µM
UACC-257 melanoma
  TGI: > 100 µM
CAKI-1 renal
  TGI: > 100 µM
HCC-2998 colon
  TGI: > 100 µM
SF-539 CNS
  TGI: > 100 µM
OVCAR-5 ovarian
  TGI: > 100 µM
M14 melanoma
  TGI: 78.7 µM
HOP-62 NSCLC
  TGI: > 100 µM
UO-31 renal
  TGI: > 100 µM
OVCAR-4 ovarian
  TGI: > 100 µM
ACHN renal
  TGI: > 100 µM
RPMI-8226 leukemia
  TGI: > 100 µM
SNB-19 CNS
  TGI: > 100 µM
TK-10 renal
  TGI: 90.7 µM
BT-549 breast
  TGI: > 100 µM
OVCAR-3 ovarian
  TGI: 85.8 µM
MDA-MB-231 breast
  TGI: > 100 µM
